Where two headings read alike, the source gives them in different places. A value given as a limit tells only on which side of the number the result lay.

Results on nine compounds are retold here after patent US20210094954A1, “PREPARATION METHODS AND APPLICATIONS OF 3,5-DISUBSTITUTED METHYLPYRAZOLO[1,5-A]PYRIMIDINE-7-HYDROXYLIC SALTS” (priority 2019, published 2021).

Assay [1] has as its system Enterococcus faecalis F2518(VRE). Put plainly: microbe, parasite or virus in culture. Format: cell-based. The following applies: Enterococcus faecalis, VRE, 24 h, read-out: MIC values of in vitro antibacterial test results.
The test system of assay [2] is Staphylococcus aureus 29231. Put plainly: microbe, parasite or virus in culture. The following applies: Staphylococcus aureus, 29231; 37° C., 24 hours; read-out: MIC values of in vitro antibacterial test results. The format is cell-based.
In assay [3] the test system is Bacillus anthracis Bacillus 1. Put plainly: microbe, parasite or virus in culture. The format is cell-based. The following applies: Bacillus anthracis, 24 h, read-out: MIC values of in vitro antibacterial test results.
Assay [4] deals with F2518(VRE), Staphylococcus aureus resistant strain 43300(MRSA), 703 (MRSA), pneumococcal resistance bacteria 6303(PRSP). Put plainly: microbe, parasite or virus in culture. Format: cell-based. The following applies: read-out: MIC values (μM).
The test system of another assay is Bacillus subtilis 168. Put plainly: microbe, parasite or virus in culture. The format is cell-based. The following applies: Bacillus subtilis, 168; 37° C., 24 hours; read-out: MIC values of in vitro antibacterial test results.
For the next assay, the system named is Oral Candida. Put plainly: microbe, parasite or virus in culture. Format: cell-based. The following applies: Candida.
For a further assay, the system named is Peel fungus. Put plainly: organism not typed. The format is cell-based. The following applies: 37° C., 24 hours; read-out: MIC values of in vitro antibacterial test results.
The subject of assay [5] is Streptococcus agalactia B group. Put plainly: microbe, parasite or virus in culture. Format: cell-based. The following applies: Streptococcus; 37° C., 24 hours; read-out: MIC values of in vitro antibacterial test results.
Assay [6] has as its system Staphylococcus aureus 43300(MRSA). Put plainly: microbe, parasite or virus in culture. The format is cell-based. The following applies: Staphylococcus aureus, MRSA, 24 h, read-out: MIC values of in vitro antibacterial test results.
For assay [7], the system named is Staphylococcus aureus 43300 (MRSA). Put plainly: antibacterial study in vivo, survival of infected kunming mice. The following applies: for Survival days: 30 days of observation.
For a further assay, the system named is Clostridium perfringens. Put plainly: microbe, parasite or virus in culture. Format: cell-based. The following applies: Clostridium perfringens, 24 h, read-out: MIC values of in vitro antibacterial test results.
A further assay deals with Bacillus cereus 2. Put plainly: microbe, parasite or virus in culture. Format: cell-based. The following applies: Bacillus cereus, 2; 37° C., 24 hours; read-out: MIC values of in vitro antibacterial test results.
Assay [8] concerns Staphylococcus aureus 703(MRSA). Put plainly: microbe, parasite or virus in culture. The format is cell-based. The following applies: Staphylococcus aureus, MRSA, 24 h, read-out: MIC values of in vitro antibacterial test results.
Assay [9] deals with Enterococcus faecalis 29212. Put plainly: microbe, parasite or virus in culture. The format is cell-based. The following applies: Enterococcus faecalis, 29212; 37° C., 24 hours; read-out: MIC values of in vitro antibacterial test results.
The subject of assay [10] is Streptococcus pneumoniae 10351. Put plainly: microbe, parasite or virus in culture. Format: cell-based. The following applies: Streptococcus pneumoniae, 10351; 37° C., 24 hours; read-out: MIC values of in vitro antibacterial test results.
A further assay deals with Diphtheria bacilli. Put plainly: organism not typed. The format is cell-based. The following applies: 37° C., 24 hours; read-out: MIC values of in vitro antibacterial test results.
The subject of assay [11] is Streptococcus pneumoniae 6303 (PRSP). Put plainly: microbe, parasite or virus in culture. Format: cell-based. The following applies: Streptococcus pneumoniae, PRSP, 24 h, read-out: MIC values of in vitro antibacterial test results.
Assay [12] deals with Streptococcus pneumoniae M2. Put plainly: microbe, parasite or virus in culture. The format is cell-based. The following applies: Streptococcus pneumoniae, M2; 37° C., 24 hours; read-out: MIC values of in vitro antibacterial test results.
Setting [13] is: 37° C., 24 hours, read-out: MIC values of in vitro antibacterial test results.

With `Cc1nn2c([O-])cc(-c3ccc(S(N)(=O)=O)cc3)nc2c1-c1ccc(F)cc1F.[Na+]` [Compound 9, Sodium 3-(2,4-difluorophenyl)-2-methyl-5-(4-sulfamoylphenyl)pyrazolo[1,5-α]pyrimidin-7-olate], the MIC in assay [1] is less than 150 µg/mL; in assay [2], less than 100 µg/mL; in assay [3], more than 150 µg/mL; in assay [4], less than 100 µg/mL; in the assay with Bacillus subtilis 168, less than 100 µg/mL; with Oral Candida (read-out: MIC values (μM)) it was less than 100 µg/mL. For the same compound, the MIC in the assay with Oral Candida (setting [13]) is less than 100 µg/mL; with Peel fungus, more than 150 µg/mL; in assay [5], less than 150 µg/mL; in assay [6] it was less than 100 µg/mL; with Clostridium perfringens it was more than 150 µg/mL; with Bacillus cereus 2, less than 150 µg/mL. Moreover, the MIC in assay [8] was less than 100 µg/mL; in assay [9], less than 100 µg/mL; in assay [10], less than 100 µg/mL; with Diphtheria bacilli, more than 150 µg/mL; in assay [11], less than 150 µg/mL; in assay [12], less than 100 µg/mL. For the same compound, the “Survival days” value in [7] (dosage 25 mg/kg) was 3.0 days.

For the compound `O=C(O)c1cn(C2CC2)c2cc(N3CCNCC3)c(F)cc2c1=O` [Ciprofloxacin, reference compound], the “Survival days” value in [7] (dosage 20 mg/kg) was 3.4 days. Also, in assay [7] (dosage 20 mg/kg, versus blank group), the “Life extension rate (%)” value turned out to be 161.5%.

As to `Cc1nn2c([O-])cc(-c3ccc(N(C)C)cc3)nc2c1-c1ccc(F)cc1F.[Na+]` [Compound 5, Sodium 3-(2,4-difluorophenyl)-5-(4-(dimethylamino)phenyl)-2-methylpyrazolo[1,5-α]pyrimidin-7-olate], the MIC in assay [1] was less than 150 µg/mL; in assay [2], more than 150 µg/mL; in assay [3] it was more than 150 µg/mL; in the assay with Bacillus subtilis 168, more than 150 µg/mL; with Oral Candida (read-out: MIC values (μM)) it was less than 100 µg/mL; with Oral Candida (setting [13]) it was less than 100 µg/mL. Moreover, the MIC with Peel fungus is less than 150 µg/mL; in [5] it was more than 150 µg/mL; in [6], less than 150 µg/mL; with Clostridium perfringens, more than 150 µg/mL; with Bacillus cereus 2, less than 150 µg/mL; in assay [8], less than 150 µg/mL. The MIC in assay [9] was less than 150 µg/mL; in [10] it was more than 150 µg/mL; in the assay with Diphtheria bacilli it was more than 150 µg/mL; in [11], more than 150 µg/mL; in assay [12] it was less than 100 µg/mL. Further, the “Survival days” value in assay [7] (dosage 30 mg/kg) came out at 2.6 days.

As for `Cc1nn2c([O-])cc(-c3ccc(C(=O)[O-])cc3)nc2c1-c1ccc(F)cc1F.[Na+].[Na+]` [Compound 7, Disodium 4-(3-(2,4-difluorophenyl)-2-methyl-7-hydroxy-pyrazolo[1,5-α]pyrimidin-5-yl)benzoate], the MIC in assay [1] was less than 150 µg/mL; in assay [2] it was more than 150 µg/mL; in assay [3] it was more than 150 µg/mL; in [4], less than 100 µg/mL; with Bacillus subtilis 168, more than 150 µg/mL; in the assay on Oral Candida (setting [13]), more than 150 µg/mL. For the same compound, the MIC with Peel fungus was less than 150 µg/mL; in assay [5], more than 150 µg/mL; in assay [6], less than 100 µg/mL; in the assay on Clostridium perfringens, more than 150 µg/mL; with Bacillus cereus 2, less than 150 µg/mL; in [8], less than 150 µg/mL. The MIC was less than 150 µg/mL in [9]; more than 150 µg/mL in assay [10]; more than 150 µg/mL with Diphtheria bacilli; more than 150 µg/mL in [11]; less than 100 µg/mL in [12].

For `Cc1nn2c([O-])cc(-c3ccc(C(=O)[O-])nc3)nc2c1-c1ccc(F)cc1F.[Na+].[Na+]` [Compound 21, Disodium 5-(3-(2,4-difluorophenyl)-2-methyl-7-hydroxypyrazolo[1,5-α]pyrimidin-5-yl)picolinate], the MIC in [1] was less than 150 µg/mL; in assay [2], more than 150 µg/mL; in assay [3], more than 150 µg/mL; in assay [4] it was less than 100 µg/mL; in the assay on Bacillus subtilis 168, more than 150 µg/mL; in the assay with Oral Candida (read-out: MIC values (μM)), less than 100 µg/mL. For the same compound, the MIC in the assay on Oral Candida (setting [13]) is less than 100 µg/mL; in the assay with Peel fungus, less than 150 µg/mL; in assay [5], more than 150 µg/mL; in assay [6], less than 100 µg/mL; with Clostridium perfringens it was more than 150 µg/mL; in the assay with Bacillus cereus 2, less than 150 µg/mL. In addition, the MIC in assay [8] is less than 150 µg/mL; in assay [9], less than 150 µg/mL; in assay [10] it was more than 150 µg/mL; with Diphtheria bacilli, more than 150 µg/mL; in [11] it was more than 150 µg/mL; in assay [12] it was less than 100 µg/mL.

As for `Cc1nn2c([O-])cc(-c3ccc(S(N)(=O)=O)cc3)nc2c1-c1ccc(F)cc1F.[K+]` [Compound 25, Potassium 3-(2,4-difluorophenyl)-2-methyl-5-(4-sulfamoylphenyl)pyrazolo[1,5-α]pyrimidin-7-olate], the MIC was less than 150 µg/mL in [1]; more than 150 µg/mL in assay [2]; more than 150 µg/mL in assay [3]; less than 100 µg/mL in [4]; more than 150 µg/mL with Bacillus subtilis 168; less than 100 µg/mL with Oral Candida (read-out: MIC values (μM)). Besides, the MIC in the assay on Oral Candida (setting [13]) is less than 100 µg/mL; in the assay on Peel fungus it was less than 150 µg/mL; in assay [5] it was more than 150 µg/mL; in assay [6], less than 150 µg/mL; in the assay on Clostridium perfringens, more than 150 µg/mL; with Bacillus cereus 2, less than 150 µg/mL. Further, the MIC is less than 150 µg/mL in assay [8]; less than 150 µg/mL in assay [9]; more than 150 µg/mL in assay [10]; more than 150 µg/mL in the assay on Diphtheria bacilli; more than 150 µg/mL in assay [11]; less than 100 µg/mL in assay [12].

On to `CC(=O)Oc1ccc(-c2cc([O-])n3nc(C)c(-c4ccc(F)cc4F)c3n2)cc1.[Na+]` [Compound 13, Sodium 5-(4-acetoxyphenyl)-3-(2,4-difluorophenyl)-2-methylpyrazolo[1,5-α]pyrimidin-7-olate], for which the MIC in [1] is less than 150 µg/mL; in [2] it was more than 150 µg/mL; in assay [3], more than 150 µg/mL; in assay [4], less than 100 µg/mL; in the assay on Bacillus subtilis 168, more than 150 µg/mL; in the assay with Oral Candida (read-out: MIC values (μM)), less than 100 µg/mL. For the same compound, the MIC was less than 100 µg/mL in the assay with Oral Candida (setting [13]); less than 150 µg/mL in the assay with Peel fungus; more than 150 µg/mL in [5]; less than 100 µg/mL in [6]; more than 150 µg/mL with Clostridium perfringens; less than 150 µg/mL in the assay on Bacillus cereus 2. Also, the MIC in [8] was less than 150 µg/mL; in [9], less than 150 µg/mL; in assay [10], more than 150 µg/mL; in the assay with Diphtheria bacilli, more than 150 µg/mL; in assay [11] it was more than 150 µg/mL; in [12], less than 100 µg/mL.

With `Cc1nn2c([O-])cc(-c3ccc([O-])nc3)nc2c1-c1ccc(F)cc1F.[Na+].[Na+]` [Compound 19, Disodium 3-(2,4-difluorophenyl)-2-methyl-5-(6-hydroxypyridin-3-yl)pyrazolo[1,5-α]pyrimidin-7-olate], the MIC in assay [1] was less than 150 µg/mL; in assay [2], more than 150 µg/mL; in [3] it was more than 150 µg/mL; in assay [4], less than 100 µg/mL; in the assay on Bacillus subtilis 168 it was more than 150 µg/mL; in the assay on Oral Candida (setting [13]), more than 150 µg/mL. In addition, the MIC with Peel fungus was less than 150 µg/mL; in assay [5], more than 150 µg/mL; in assay [6], less than 100 µg/mL; in the assay with Clostridium perfringens it was more than 150 µg/mL; with Bacillus cereus 2, less than 100 µg/mL; in [8] it was less than 150 µg/mL. Besides, the MIC in [9] was less than 150 µg/mL; in assay [10], more than 150 µg/mL; with Diphtheria bacilli, more than 150 µg/mL; in assay [11], more than 150 µg/mL; in [12] it was less than 100 µg/mL.

Consider `Cc1nn2c([O-])cc(-c3ccc(C#N)nc3)nc2c1-c1ccc(F)cc1F.[Na+]` [Compound 15, sodium 5-(6-cyanopyridin-3-yl)-3-(2,4-difluorophenyl)-2-methylpyrazolo[1,5-α]pyrimidin-7-olate], for which the MIC in assay [1] is less than 150 µg/mL; in assay [2], less than 100 µg/mL; in assay [3], more than 150 µg/mL; in assay [4], less than 100 µg/mL; with Bacillus subtilis 168 it was less than 150 µg/mL; in the assay with Oral Candida (setting [13]), less than 150 µg/mL. Also, the MIC in the assay with Peel fungus is more than 150 µg/mL; in [5], more than 150 µg/mL; in assay [6], less than 150 µg/mL; in the assay on Clostridium perfringens, more than 150 µg/mL; in the assay on Bacillus cereus 2, less than 100 µg/mL; in assay [8], less than 100 µg/mL. The MIC is less than 100 µg/mL in assay [9]; less than 100 µg/mL in assay [10]; more than 150 µg/mL with Diphtheria bacilli; less than 150 µg/mL in assay [11]; less than 100 µg/mL in assay [12].
